# Measured values from patent US10701876B2, “Production of plants using somatic embryogenesis” (MARS, INCORPORATED, priority 2013, dated 2020).
# Test system: Theobroma cacao L. CCN-10 clones, primary somatic embryo epicotyl/cotyledon explants
# Experiment: Direct secondary somatic embryogenesis from primary somatic embryo explants (hormone balance and stressor test)
# Format: cell-based
# Description: For the production of secondary embryos, epicotyls are taken from primary somatic embryos with size 1 cm and 40 mg of weight and they were cut in 10-15 pieces and placed into flask with 25 ml of liquid medium for embryogenic induction (Table 5) with some modifications in the experimental design (Table 7) per 5 weeks (step c). The culture is exposed to a light:dark 16:8 photoperiod, at a temperature of 27±2° C. and photosynthetic active radiation (PAR) or photosynthetic photon flux density (PPFD) of 50-190 μmol/m^2 per second. After this period, the somatic embryos in globular stage are transferred into the Petri dish in semi-solid developing media (Table 6) with some modifications (Table 8), with a 21-day culture period in light conditions until the embryos express and develop to the heart or early torpedo stage. Afterward, the cultures were transferred into the Petri dish in the same medium, but without gibberellic acid and with the same culture conditions but in the dark with transferences every 14 days for embryo's maturation. A variety of media were tested to assess the concentrations of plant hormones and stressors to be used in direct secondary somatic embryogenesis, as set forth in the following tables: [table] [table] Cotyledon explants were collected 40 days after induction and were used for study. Samples were fixed with FAA [10% formalin, 5% acetic acid, 50% ethanol (v/v)] per 8 days. The sample must be previously cut into approximately 0.5 to 1.0 mm. Do three (3) washes of 5 minutes each with distilled water or buffer to remove the fixative. […] the material in increasing concentrations of ethanol for at least 1 h of 70%, 85% and 95% at room temperature (incubation time varies with the kind of the material). Since the experiments were established, evaluations have been performed every 14 days, and some dependent variables like: number of calluses formed, number of normal embryos without callus formation, number of abnormal embryos without callus formation, number of pro-embryogenic masses, number of torpedo embryos, number of heart embryos, number of globular embryos, and overall observations. The Dino-Lite digital microscope premier, AM4113/AD4113 series was used for the observations. The experiment was a sequence of mediums where the first was induction medium (Table 7) followed by combination with develop medium (Table 8). The factorial analysis was 5×2, in view of the testing of 2 sucrose concentrations (40 and 80 g/l) and 5 gibberellic acid concentrations (0.0, 0.2, 0.4, 0.6 and 1.0 mg/l), using a completely randomized design.
SMILES,"quantity of abnormal embryos (1 mg/l gibberellic acid and 40 g/l sucrose in development medium, compared with the other treatments (FIG. 4))",expression of direct somatic embryos (number of embryos produced) (different concentrations of gibberellic acid in combination with 40 g/L or 80 g/L sucrose (FIG. 4)),"normal embryos (sequence of media: induction 1.0 mg/l BAP + 40 g/l sucrose, light, 40 days, then 0.6 mg/l gibberellic acid + 40 g/l sucrose, light, 21 days, then same medium without gibberellic acid, darkness) [%]","direct somatic embryos developed by embryonic regions of cotyledon explants (histological analysis) (induction medium with 1.0 mg/L BAP and 40 g/L sucrose, 40 days of culture (FIG. 5))"
C=C1C[C@]23C[C@@]1(O)CC[C@H]2[C@@]12C=C[C@H](O)[C@@](C)(C(=O)O1)[C@H]2[C@@H]3C(=O)O [gibberellic acid],highest quantity of abnormal embryos,influenced the expression of direct somatic embryos,83.3,–
"c1ccc(CNc2ncnc3nc[nH]c23)cc1 [BAP, 6-benzylaminopurine]",–,–,–,large numbers of direct somatic embryos in globular and heart stage
